Paper PMC7181201, “Dual P-Glycoprotein and CA XII Inhibitors: A New Strategy to Reverse the P-gp Mediated Multidrug Resistance (MDR) in Cancer Cells” (Molecules, 2020)
Where “and” joins values, the source holds several entries; their conditions need not be identical. Equal values may be shown once.

What was measured:
hCA II = molecular target: T1, hCA II (Homo sapiens, UniProt P00918); assay: Stopped-flow CO2 hydrase assay, hCA II; assay type: biochemical; conditions: stopped flow, mean from 3 assays
T1 construct: made in house
Procedure: (§1) An SX.18MV-R Applied Photophysics (Oxford, UK) stopped-flow instrument was used to assay the catalytic/inhibition of various CA isozymes. […] Saturated CO2 solutions in water at 25 °C were used as a substrate. Stock solutions of inhibitors were prepared at a concentration of 10 μM (in DMSO-water 1:1, v/v) and dilutions up to 0.01 nM done with the assay buffer mentioned above. […] Inhibitor and enzyme solutions were preincubated together for 10 min at room temperature prior to the assay, in order to allow for the formation of the E–I complex. […] The inhibition constants were obtained by non-linear least-squares methods using the Cheng–Prusoff equation, as reported earlier, and represent the mean from at least three different determinations. All CA isozymes used here were recombinant proteins obtained as reported earlier by our group.

K562/DOX cells = assay: Enhancement of doxorubicin cytotoxicity on K562/DOX cells (MTT); assay type: cell-based, human; conditions: 72 h
Procedure: (§2) To evaluate the enhancement of doxorubicin toxicity in the presence of the tested compounds, the cells, in exponential growth phase, were seeded at 10^4 cells/well and solutions of either compounds or doxorubicin, or a solution of doxorubicin in combination with the compounds, were added to the wells repeated in quadruplicate. […] The MTT working solution was then added and plates were further incubated for 3 h. Following incubation cells and formazan crystals were inspected microscopically. The supernatant was then carefully removed by slow aspiration and the formazan crystals were dissolved in […] of acidified isopropanol solution. The absorbance of the solution was then read on an automated plate reader at a wavelength of 570 nm. The increase in the toxicity of doxorubicin was quantified by the ratio between the growth of the cell sample treated with IC20 of doxorubicin and that of the cell sample treated with IC20 of doxorubicin in combination with the various concentrations of the tested compounds.

hCA IX = molecular target: T2, hCA IX (Homo sapiens, UniProt Q16790); assay: Stopped-flow CO2 hydrase assay, hCA IX; assay type: biochemical; conditions: for Ki: stopped flow, mean from 3 assays
T2 construct: made in house
Procedure: as §1

P-gp [1] = molecular target: T3, P-gp (Homo sapiens, UniProt P08183); assay: Rhodamine-123 uptake test on LoVo/DOX cells (flow cytometry); assay type: cell-based
T3 construct: doxorubicin resistant K562/DOX cell line overexpresses almost exclusively the transporter membrane protein P-gp; endogenous in cells; host or cells: K562/DOX (doxorubicin-selected human erythroleukemia cells)
T3 sequence (P08183 whole entry): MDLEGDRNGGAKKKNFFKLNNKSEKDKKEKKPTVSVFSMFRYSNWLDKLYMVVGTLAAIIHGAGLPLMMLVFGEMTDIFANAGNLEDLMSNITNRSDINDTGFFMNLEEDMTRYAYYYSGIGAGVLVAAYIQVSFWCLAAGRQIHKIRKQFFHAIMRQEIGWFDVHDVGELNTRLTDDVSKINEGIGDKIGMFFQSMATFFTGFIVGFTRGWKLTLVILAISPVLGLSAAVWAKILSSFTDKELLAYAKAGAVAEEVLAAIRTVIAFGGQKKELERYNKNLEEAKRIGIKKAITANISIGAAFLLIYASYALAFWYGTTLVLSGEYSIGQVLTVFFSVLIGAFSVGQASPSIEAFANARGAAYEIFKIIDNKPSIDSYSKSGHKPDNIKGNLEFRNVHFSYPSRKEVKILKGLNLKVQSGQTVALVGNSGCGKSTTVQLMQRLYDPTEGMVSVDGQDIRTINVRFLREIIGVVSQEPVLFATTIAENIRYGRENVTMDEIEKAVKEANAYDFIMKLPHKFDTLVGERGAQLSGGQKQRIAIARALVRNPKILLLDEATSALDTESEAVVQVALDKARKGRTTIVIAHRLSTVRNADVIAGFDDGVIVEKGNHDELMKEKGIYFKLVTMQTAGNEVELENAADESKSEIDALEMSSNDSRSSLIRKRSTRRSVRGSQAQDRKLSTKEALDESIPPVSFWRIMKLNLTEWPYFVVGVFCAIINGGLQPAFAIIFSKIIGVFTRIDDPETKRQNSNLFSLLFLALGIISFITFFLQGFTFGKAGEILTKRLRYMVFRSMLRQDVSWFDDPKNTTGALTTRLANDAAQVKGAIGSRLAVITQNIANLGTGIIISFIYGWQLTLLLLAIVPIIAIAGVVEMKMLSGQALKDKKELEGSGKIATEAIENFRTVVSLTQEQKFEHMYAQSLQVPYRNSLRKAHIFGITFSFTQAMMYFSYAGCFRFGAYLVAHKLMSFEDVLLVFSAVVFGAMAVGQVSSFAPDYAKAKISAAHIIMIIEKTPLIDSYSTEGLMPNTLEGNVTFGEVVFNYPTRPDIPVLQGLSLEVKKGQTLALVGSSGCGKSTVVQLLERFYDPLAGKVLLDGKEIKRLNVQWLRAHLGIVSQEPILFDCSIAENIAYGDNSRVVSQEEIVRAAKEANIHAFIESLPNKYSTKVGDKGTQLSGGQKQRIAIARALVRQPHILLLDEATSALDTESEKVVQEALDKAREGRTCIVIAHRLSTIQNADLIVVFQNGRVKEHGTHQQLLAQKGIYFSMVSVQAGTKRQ
Procedure: The selected compounds were preliminary studied at 3, 10 and 30 µM concentrations by the MTT (3-(4,5-dimethylthiazolyl-2)-2,5-diphenyltetrazolium bromide) assay to evaluate their intrinsic cytotoxicity on LoVo/DOX cell line.
(§3) An aliquot of cells (control) was incubated with the fluorochrome in the absence of inhibitors.
(§4) At the end of the uptake, cells were sedimented, washed twice in ice-cold PBS, placed in PBS on ice, and kept in the dark until flow cytometric analysis.
(§5) The histograms were generated by program GraphPad Prism 5 (GraphPad Prism software, Inc., San Diego, CA, USA); the data were obtained from the ratio between the average fluorescence intensity of the samples preincubated with the compounds under study and subsequently exposed to rhodamine, and the fluorescence of the sample exposed only to the rhodamine.

LoVo/DOX cells = assay: Enhancement of doxorubicin cytotoxicity on LoVo/DOX cells (MTT); assay type: cell-based, human; conditions: 72 h
Procedure: as §2

hCA XII = molecular target: T4, hCA XII (Homo sapiens, UniProt O43570); assay: Stopped-flow CO2 hydrase assay, hCA XII; assay type: biochemical; conditions: stopped flow, mean from 3 assays
T4 construct: made in house
T4 sequence (O43570 25-354): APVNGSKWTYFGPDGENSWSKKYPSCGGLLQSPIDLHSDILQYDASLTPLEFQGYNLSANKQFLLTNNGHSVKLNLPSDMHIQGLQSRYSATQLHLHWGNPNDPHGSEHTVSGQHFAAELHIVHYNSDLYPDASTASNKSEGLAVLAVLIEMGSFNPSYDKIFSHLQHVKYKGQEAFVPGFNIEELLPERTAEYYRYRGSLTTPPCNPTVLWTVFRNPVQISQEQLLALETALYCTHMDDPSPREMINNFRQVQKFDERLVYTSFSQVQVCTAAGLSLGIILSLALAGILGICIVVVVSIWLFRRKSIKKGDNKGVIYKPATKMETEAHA
Procedure: as §1

P-gp [2] = molecular target: T3, P-gp; assay: Rhodamine-123 uptake test on K562/DOX cells (flow cytometry); assay type: cell-based
Procedure: The results were expressed as the FR (fluorescence ratio), which is the ratio between the average fluorescence intensity of rhodamine in the presence and in the absence of modulators. Value 1 was attributed to the average fluorescence intensity of the samples exposed only to rhodamine.
as §3, §4, §5

hCA I = molecular target: T5, hCA I (Homo sapiens, UniProt P00915); assay: Stopped-flow CO2 hydrase assay, hCA I; assay type: biochemical; conditions: mean from 3 assays
T5 construct: made in house
T5 sequence (P00915 whole entry): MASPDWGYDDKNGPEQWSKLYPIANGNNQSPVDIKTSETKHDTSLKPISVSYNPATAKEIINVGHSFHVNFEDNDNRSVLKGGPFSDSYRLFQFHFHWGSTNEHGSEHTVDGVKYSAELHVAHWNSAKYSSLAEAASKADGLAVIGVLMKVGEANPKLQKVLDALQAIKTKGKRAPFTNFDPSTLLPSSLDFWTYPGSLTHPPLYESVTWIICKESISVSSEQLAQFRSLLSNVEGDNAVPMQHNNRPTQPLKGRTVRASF
Procedure: as §1

[3] = doxorubicin 0.5 µM (IC20) + compound 3 µM
[4] = doxorubicin 0.5 µM (IC20) + compound 10 µM
[5] = doxorubicin 0.3 µM (IC20) + compound 3 µM
[6] = doxorubicin 0.3 µM (IC20) + compound 10 µM

| SMILES | Ki (hCA II) [nM] | Cell Growth (%) (K562/DOX cells; [3]) | Cell Growth (%) (K562/DOX cells; [4]) | Ki (hCA IX) [nM] | FR (fluorescence ratio, Rhd 123 uptake) (P-gp [1]; compound 3 µM) | Cell Growth (%) (LoVo/DOX cells; [5]) | Cell Growth (%) (LoVo/DOX cells; [6]) | Ki (hCA XII) [nM] | FR (fluorescence ratio, Rhd 123 uptake with/without modulator) (P-gp [2]; compound 3 µM) | FR (fluorescence ratio, Rhd 123 uptake with/without modulator) (P-gp [2]; compound 30 µM) | Ki (hCA I) [nM] | FR (fluorescence ratio, Rhd 123 uptake) (P-gp [1]; compound 10 µM) | Cell Growth (%) (LoVo/DOX cells; doxorubicin 0.3 µM (IC20) + compound 10 µM, listed as verapamil) | more potent on hCA IX than on hCA XII (hCA IX; ratio of Ki values) |
| --- | --- | --- | --- | --- | --- | --- | --- | --- | --- | --- | --- | --- | --- | --- |
| COc1cc(/C=C/C(=O)OCCCCCCCN(C)CCOC(=O)c2ccc(S(N)(=O)=O)cc2)cc(OC)c1OC [Compound 21, (E)-2-(methyl(7-((3-(3,4,5-trimethoxyphenyl)acryloyl)oxy)heptyl)amino)ethyl 4-sulfamoyl benzoate] | 48.9 | 78.8 ± 10.2% | 68.7 ± 3.6 | 68.4 | negligible | 82.0 ± 2.7% | 59.0 ± 3.3% | 35.2 | 1.30 | 3.70 | 533 |  |  |  |
| CN(CCCCCOC(=O)c1ccc(S(N)(=O)=O)cc1)CCCOC(=O)c1c2ccccc2cc2ccccc12 [Compound 26, 3-(methyl(5-((4-sulfamoylbenzoyl)oxy)pentyl)amino)propyl anthracene-9-carboxylate] | 81.2 | 77.9 ± 6.1% | 74.0 ± 2.6 | 241 | negligible | 82.0 ± 2.0% | 58.2 ± 5.9% | 23.4 | 2.10 | 4.45 | 339 |  |  |  |
| COc1cc(/C=C/C(=O)OCCCN(C)CCCCCOC(=O)COc2ccc3ccc(=O)oc3c2)cc(OC)c1OC [Compound 2, (E)-3-(methyl(5-(2-((2-oxo-2H-chromen-7-yl)oxy)acetoxy)pentyl)amino)propyl 3-(3,4,5-trimethoxyphenyl)acrylate] | > 10000 | 85.6 ± 4.7% | 65.0 ± 5.2 | 47.4 |  | 82.7 ± 10.2% | 41.5% and 41.5 ± 7.3% | 8.9 | 1.57 | 5.81 | > 10000 | 10.50 |  |  |
| COc1ccc(CCN(C)CCCC(C#N)(c2ccc(OC)c(OC)c2)C(C)C)cc1OC (stereo not drawn) [Ver, verapamil, reference compound] |  | 69.0 ± 0.03% | 62.0 ± 0.1 |  |  | 54.0 ± 0.06% | 51.0 ± 0.09% |  |  |  |  |  | 51.0 |  |
| COc1cc(C(=O)OCCCCCCCN(C)CCOC(=O)c2ccc(S(N)(=O)=O)cc2)cc(OC)c1OC [Compound 25, 7-(methyl(2-((4-sulfamoylbenzoyl)oxy)ethyl)amino)heptyl 3,4,5-trimethoxybenzoate] | 90.2 | 80.3 ± 5.9% | 76.0 ± 3.7 | 117 | negligible | 81.7 ± 2.0% |  | 8 | 1.44 | 3.50 | 42.7 |  |  |  |
| COc1cc(/C=C/C(=O)OCCCCCCN(C)CCCOC(=O)COc2ccc3ccc(=O)oc3c2)cc(OC)c1OC [Compound 5, (E)-6-(methyl(3-(2-((2-oxo-2H-chromen-7-yl)oxy)acetoxy)propyl)amino)hexyl 3-(3,4,5-trimethoxyphenyl)acrylate] | > 10000 | 51.7% and 51.7 ± 3.0% |  | 26.7 |  | 58.0% and 58.0 ± 2.4% | 51.0% and 51.0 ± 1.9% | 6.4 | 3.67 | 5.85 | > 10000 | 6.30 |  |  |
| COc1cc(/C=C/C(=O)OCCCCCCCN(C)CCCCCCCOC(=O)COc2ccc3ccc(=O)oc3c2)cc(OC)c1OC [Compound 8, (E)-7-(methyl(7-(2-((2-oxo-2H-chromen-7-yl)oxy)acetoxy)heptyl)amino)heptyl 3-(3,4,5-trimethoxyphenyl)acrylate] | > 10000 | 82.0 ± 5.9% |  | 24.2 |  | 68.0% and 68.0 ± 2.9% | 32.2% and 32.2 ± 10.7% | 7.1 | 2.33 | 4.15 | > 10000 | 9.90 |  |  |
| COc1cc(/C=C/C(=O)OCCCCCCCN(C)CCCCCCCOC(=O)c2ccc(S(N)(=O)=O)cc2)cc(OC)c1OC [Compound 22, (E)-7-(methyl(7-((3-(3,4,5-trimethoxyphenyl)acryloyl)oxy)heptyl)amino)heptyl 4-sulfamoyl benzoate] | 445 |  |  | 172 |  |  |  | 96.7 | 2.85 | 3.20 | 73.7 |  |  |  |
| COc1cc(C(=O)OCCCN(C)CCCCCOC(=O)c2ccc(S(N)(=O)=O)cc2)cc(OC)c1OC [Compound 23, 3-(methyl(5-((4-sulfamoylbenzoyl)oxy)pentyl)amino)propyl 3,4,5-trimethoxybenzoate] | 128 |  |  | 26.6 |  |  |  | 63.7 | 1.00 | 1.66 | 284 |  |  | twice |
| COc1cc(/C=C/C(=O)OCCCN(C)CCCCCOC(=O)c2ccc(S(N)(=O)=O)cc2)cc(OC)c1OC [Compound 16, (E)-5-(methyl(3-((3-(3,4,5-trimethoxyphenyl)acryloyl)oxy)propyl)amino)pentyl 4-sulfamoyl benzoate] | 555 |  |  | 211 |  |  |  | 94.3 | 1.08 | 1.83 | 447 |  |  |  |
| CN(CCCCCOC(=O)COc1ccc2ccc(=O)oc2c1)CCCOC(=O)c1c2ccccc2cc2ccccc12 [Compound 12, 3-(methyl(5-(2-((2-oxo-2H-chromen-7-yl)oxy)acetoxy)pentyl)amino)propyl anthracene-9-carboxylate] | > 10000 |  |  | 151 |  |  |  | 45.7 | 1.00 | 2.53 | > 10000 |  |  |  |
| CN(CCCCCCCOC(=O)c1c2ccccc2cc2ccccc12)CCOC(=O)COc1ccc2ccc(=O)oc2c1 [Compound 14, 7-(methyl(2-(2-((2-oxo-2H-chromen-7-yl)oxy)acetoxy)ethyl)amino)heptyl anthracene-9-carboxylate] | > 10000 |  |  | 126 |  |  |  | 42.9 | 1.25 | 4.22 | > 10000 |  |  |  |
| COc1cc(C(=O)OCCCCCCN(C)CCCOC(=O)COc2ccc3ccc(=O)oc3c2)cc(OC)c1OC [Compound 10, 6-(methyl(3-(2-((2-oxo-2H-chromen-7-yl)oxy)acetoxy)propyl)amino)hexyl 3,4,5-trimethoxy benzoate] | > 10000 |  |  | 103 |  |  |  | 8.9 | 1.16 | 2.18 | > 10000 |  |  |  |
